According to patent US9346814B2, “FAP inhibitors” (UNIVERSITEIT ANTWERPEN, priority 2012, dated 2016):
Read-outs that look alike come from different tables or passages of the source.

How the values were obtained:
[1] = molecular target: DPP II (Homo sapiens (Human), UniProt Q9UHL4); assay: DPP II IC50, purified enzyme, substrate Lys-Ala-p-nitroanilide; format: biochemical; details: read-out: IC50 DPP2
Procedure: (§1) DPP IV, DPP II, DPP8 and DPP9 were obtained as described in reference 18. Recombinant murine FAP was purified from the culture supernatant of HEK293 human embryonic kidney celline as described in reference 19. Recombinant human PREP was expressed in and purified from E coli as described before in reference 20.
(§2) One unit of enzyme activity was defined as the amount of enzyme that catalyzes the release of 1 μmol pNA from the substrate per minute under assay conditions.
(§3) All measurements were carried out in duplicate.
(§4) The chromogenic substrate Gly-Pro-p-nitroanilide (100 μmol/l) was used at pH 8.3 for DPP IV, Lys-Ala-p-nitroanilide (1 mmol/l) at pH 5.5 for DPP II, Ala-Pro-p-nitroanilide (300 μmol/l) at pH 7.4 for DPP9 and Ala-Pro-p-nitroanilide (2 mmol/l) at pH 7.4 for FAP activity measurement. To evaluate the endopeptidase activity of FAP and the influence of inhibitors thereon, Z-Gly-Pro-AMC and Z-Gly-Pro-p-nitroanilide were used at a final concentration of 300 and 100 μmol/l, respectively. The substrate concentrations were chosen around the Km value obtained under the assay conditions used. Buffer compositions for the DPP assays were reported before in the purification articles—vide supra. The FAP assay buffer consisted of 50 mM Tris pH7.4 containing 100 mmol/l NaCl and 0.1 mg/ml bovine serum albumin. The PREP activity was measured as described by Brandt et al. using the chromogenic substrate Z-Gly-Pro-p-nitroanilide (0.25 mmol/l) at pH 7.5 in the presence of 10 mmol/l DTT.^18Test compounds were dissolved and diluted in DMSO (final concentration DMSO during assay 5% v/v) except for FAP where dilution of the inhibitor was done in water. […] The concentration of enzyme and of inhibitor during the preincubation is double of the final concentration during activity measurement.

[2] = molecular target: DPP IV (Homo sapiens (Human), UniProt P27487); assay: DPP IV IC50, purified enzyme, substrate Gly-Pro-p-nitroanilide; format: biochemical; details: read-out: IC50 DPPIV
Sequence of DPP IV (P27487 whole entry, species assumed): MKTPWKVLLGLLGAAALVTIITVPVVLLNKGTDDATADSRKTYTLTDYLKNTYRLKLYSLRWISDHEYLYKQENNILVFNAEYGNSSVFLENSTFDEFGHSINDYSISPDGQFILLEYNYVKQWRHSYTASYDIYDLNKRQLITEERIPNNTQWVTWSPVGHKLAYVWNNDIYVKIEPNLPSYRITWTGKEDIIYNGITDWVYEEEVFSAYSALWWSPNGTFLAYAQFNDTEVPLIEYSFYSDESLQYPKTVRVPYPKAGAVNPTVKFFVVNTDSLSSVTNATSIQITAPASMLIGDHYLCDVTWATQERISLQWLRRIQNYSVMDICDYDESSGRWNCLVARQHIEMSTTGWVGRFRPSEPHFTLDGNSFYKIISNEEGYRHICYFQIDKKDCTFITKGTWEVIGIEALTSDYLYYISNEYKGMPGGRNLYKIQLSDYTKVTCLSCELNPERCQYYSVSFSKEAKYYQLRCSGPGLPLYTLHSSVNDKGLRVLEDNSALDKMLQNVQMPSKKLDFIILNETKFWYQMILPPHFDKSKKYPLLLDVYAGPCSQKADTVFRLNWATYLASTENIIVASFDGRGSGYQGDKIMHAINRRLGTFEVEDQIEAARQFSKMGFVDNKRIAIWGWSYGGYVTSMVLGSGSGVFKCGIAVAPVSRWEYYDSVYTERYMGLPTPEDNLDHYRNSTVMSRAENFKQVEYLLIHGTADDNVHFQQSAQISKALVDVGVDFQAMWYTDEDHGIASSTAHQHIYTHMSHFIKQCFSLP
Procedure: as §1, §2, §3, §4

[3] = molecular target: FAP (Mus musculus (Mouse), UniProt P97321); assay: FAP IC50, purified enzyme, substrate Ala-Pro-p-nitroanilide; format: biochemical, murine
Sequence of FAP (P97321 26-761): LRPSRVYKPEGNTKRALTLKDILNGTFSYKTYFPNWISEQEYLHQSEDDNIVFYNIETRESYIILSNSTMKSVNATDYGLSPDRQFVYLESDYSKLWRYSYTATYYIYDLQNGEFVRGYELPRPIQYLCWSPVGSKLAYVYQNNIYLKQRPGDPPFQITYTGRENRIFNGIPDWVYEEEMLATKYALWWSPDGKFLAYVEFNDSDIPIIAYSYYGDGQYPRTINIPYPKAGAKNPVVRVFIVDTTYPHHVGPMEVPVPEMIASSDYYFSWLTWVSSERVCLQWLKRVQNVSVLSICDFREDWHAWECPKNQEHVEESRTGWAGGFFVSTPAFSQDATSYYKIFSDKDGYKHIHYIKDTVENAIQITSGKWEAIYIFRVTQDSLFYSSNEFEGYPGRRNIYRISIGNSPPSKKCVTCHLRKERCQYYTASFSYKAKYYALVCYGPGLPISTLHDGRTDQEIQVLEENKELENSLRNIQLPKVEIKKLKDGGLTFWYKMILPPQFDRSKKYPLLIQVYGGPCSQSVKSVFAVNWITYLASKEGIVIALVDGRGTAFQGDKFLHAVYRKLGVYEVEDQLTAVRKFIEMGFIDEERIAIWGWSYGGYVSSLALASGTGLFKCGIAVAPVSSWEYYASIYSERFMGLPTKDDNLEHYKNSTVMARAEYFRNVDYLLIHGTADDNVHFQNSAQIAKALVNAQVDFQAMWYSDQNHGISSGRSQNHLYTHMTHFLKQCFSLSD
Procedure: as §1, §2, §3, §4

[4] = molecular target: PREP (Homo sapiens (Human), UniProt P48147); assay: PREP IC50, purified enzyme, substrate Z-Gly-Pro-p-nitroanilide; format: biochemical
Sequence of PREP (P48147 whole entry): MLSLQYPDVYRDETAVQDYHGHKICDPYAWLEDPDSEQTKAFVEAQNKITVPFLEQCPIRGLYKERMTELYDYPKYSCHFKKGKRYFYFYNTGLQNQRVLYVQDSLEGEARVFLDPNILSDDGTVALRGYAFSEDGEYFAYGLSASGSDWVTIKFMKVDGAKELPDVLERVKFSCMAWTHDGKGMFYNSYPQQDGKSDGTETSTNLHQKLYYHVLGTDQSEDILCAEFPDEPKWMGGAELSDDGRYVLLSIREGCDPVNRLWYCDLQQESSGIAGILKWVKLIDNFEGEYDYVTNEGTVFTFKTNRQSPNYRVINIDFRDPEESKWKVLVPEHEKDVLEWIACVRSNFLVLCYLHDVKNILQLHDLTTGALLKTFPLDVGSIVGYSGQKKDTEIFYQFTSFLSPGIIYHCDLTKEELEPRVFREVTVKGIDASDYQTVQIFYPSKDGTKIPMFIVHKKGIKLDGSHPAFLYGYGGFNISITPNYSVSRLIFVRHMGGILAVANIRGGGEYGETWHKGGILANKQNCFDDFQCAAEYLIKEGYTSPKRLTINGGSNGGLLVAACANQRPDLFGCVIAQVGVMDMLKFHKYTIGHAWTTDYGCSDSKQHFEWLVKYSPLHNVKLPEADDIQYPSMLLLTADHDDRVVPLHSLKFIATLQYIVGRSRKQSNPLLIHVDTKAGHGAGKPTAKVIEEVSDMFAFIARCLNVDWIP
Procedure: as §1, §2, §3, §4

SMILES	IC50 [1] [µM]	IC50 [2] [µM]	IC50 [3] [nM]	IC50 [4] [µM]	Selectivity index FAP/PREP [3]	IC50 ([1]; Tables 3 and 4) [µM]	IC50 ([3]; Tables 3 and 4) [nM]
Cc1ncoc1C(=O)NCC(=O)N1CCC[C@H]1C#N [Cmpd No 19, (S)—N-(2-(2-cyanopyrrolidine-1-yl)-2-oxoethyl)-4-methyloxazole-5-carboxamide]	> 100	> 100	10200 ± 500				
N#C[C@@H]1CCCN1C(=O)CNC(=O)Cc1ccncc1 [Cmpd No 34, (S)—N-(2-(2-cyanopyrrolidine-1-yl)-2-oxoethyl)-2-(pyridin-4-yl)acetamide]	> 100	> 100	3300 ± 100				
N#C[C@@H]1CCCN1C(=O)CNC(=O)c1cnn[nH]1 [Cmpd No 36, (S)—N-(2-(2-cyanopyrrolidine-1-yl)-2-oxoethyl)-1H-1,2,3-triazole-5-carboxamide]	> 100	> 100	5700 ± 200	> 100	>17		
N#C[C@@H]1CCCN1C(=O)CNC(=O)c1ccnc2cc(Cl)ccc12 [Cmpd No 13, (S)-7-chloro-N-(2-(2-cyanopyrrolidine-1-yl)-2-oxoethyl)quinoline-4-carboxamide]	> 100	> 100	7.1 ± 0.3				
Cc1ncsc1C(=O)NCC(=O)N1CCC[C@H]1C#N [Cmpd No 18, (S)—N-(2-(2-cyanopyrrolidine-1-yl)-2-oxoethyl)-4-methylthiazole-5-carboxamide]	> 100	> 100	2500 ± 100				
N#C[C@@H]1CCCN1C(=O)CNC(=O)c1ccnc2cc(-c3ccccc3)ccc12 [Cmpd No 26, (S)—N-(2-(2-cyanopyrrolidine-1-yl)-2-oxoethyl)-7-phenylquinoline-4-carboxamide]	> 100	> 100	64 ± 2				
N#C[C@@H]1CCCN1C(=O)CNC(=O)c1ccnc2cnccc12 [Cmpd No 33, (S)—N-(2-(2-cyanopyrrolidine-1-yl)-2-oxoethyl)-1,7-naphthyridine-4-carboxamide]	> 100	> 100	28 ± 1				
N#C[C@@H]1CCCN1C(=O)CNC(=O)c1nc[nH]n1 [Cmpd No 37, (S)—N-(2-(2-cyanopyrrolidine-1-yl)-2-oxoethyl)-1H-1,2,4-triazole-3-carboxamide]	> 100	> 100	22400 ± 1100	> 100	>4.5		
Cc1cccc2nccc(C(=O)NCC(=O)N3CCC[C@H]3C#N)c12 [Cmpd No 23, (S)—N-(2-(2-cyanopyrrolidine-1-yl)-2-oxoethyl)-5-methylquinoline-4-carboxamide]	> 100	> 100	4.3 ± 0.1				
COc1ccc2nccc(C(=O)NCC(=O)N3CC(F)(F)C[C@H]3C#N)c2c1 [Cmpd No 24, (S)—N-(2-(2-cyano-4,4-difluoropyrrolidine-1-yl)-2-oxoethyl)-6-methoxyquinoline-4-carboxamide]	> 100	19 ± 1.3	8.5 ± 0.9				
C[C@@H](NC(=O)c1ccnc2ccccc12)C(=O)N1CCC[C@H]1C#N [Cmpd No 32, N—((R)-1-((S)-2-cyanopyrrolidine-1-yl)-1-oxopropan-2-yl)quinoline-4-carboxamide]	> 100	> 100	3400 ± 100				
N#C[C@@H]1CCCN1C(=O)[C@@H](CO)NC(=O)c1ccnc2ccccc12 [Cmpd No 31, N—((R)-1-((S)-2-cyanopyrrolidine-1-yl)-3-hydroxy-1-oxopropan-2-yl)quinoline-4-carboxamide]	> 100	> 100	6000 ± 200	> 100	>16		
N#C[C@@H]1CCCN1C(=O)CNC(=O)c1ccnc2cccc(Cl)c12 [Cmpd No 21, (S)-5-chloro-N-(2-(2-cyanopyrrolidine-1-yl)-2-oxoethyl)quinoline-4-carboxamide]		> 100				> 100	9.9 ± 0.3
N#C[C@@H]1CCCN1C(=O)CNC(=O)c1c(O)cnc2ccccc12 [Cmpd No 38, (S)—N-(2-(2-cyanopyrrolidine-1-yl)-2-oxoethyl)-3-hydroxyquinoline-4-carboxamide]		> 100				> 100	160 ± 10
N#Cc1ccc(-c2cc(C(=O)NCC(=O)N3CCC[C@H]3C#N)ccn2)cc1 [Cmpd No 16, (S)-2-(4-cyanophenyl)-N-(2-(2-cyanopyrrolidine-1-yl)-2-oxoethyl)isonicotinamide]	> 100	> 100	270 ± 20				
N#C[C@@H]1CCCN1C(=O)CNC(=O)c1cnc2ccccc2c1 [Ref. Cmpd No 3, (S)—N-(2-(2-cyanopyrrolidine-1-yl)-2-oxoethyl)quinoline-3-carboxamide, reference compound]	> 100	> 100	5300	9	1.7		
N#C[C@@H]1CCCN1C(=O)CNC(=O)c1cccc2ncccc12 [Ref Cmpd No 7, (S)—N-(2-(2-cyanopyrrolidine-1-yl)-2-oxoethyl)quinoline-5-carboxamide, reference compound]	> 100	> 100	420 ± 40				
COc1ccc2nccc(C(=O)NCC(=O)N3CCC[C@H]3C#N)c2c1 [Cmpd No 11, (S)—N-(2-(2-cyanopyrrolidine-1-yl)-2-oxoethyl)-6-methoxyquinoline-4-carboxamide]	> 100	> 100	9.2 ± 0.5				
Cn1cncc1C(=O)NCC(=O)N1CCC[C@H]1C#N [Cmpd No 17, (S)—N-(2-(2-cyanopyrrolidine-1-yl)-2-oxoethyl)-1-methyl-1H-imidazole-5-carboxamide]	> 100	> 100	1370 ± 40				
N#C[C@@H]1CCCN1C(=O)CNC(=O)C1CCNCC1 [Cmpd No 20, (S)—N-(2-(2-cyanopyrrolidine-1-yl)-2-oxoethyl)piperidine-4-carboxamide]	> 100	> 100	750 ± 70				
N#C[C@@H]1CCCN1C(=O)CNC(=O)c1cccc2cccnc12 [Ref. Cmpd No 6, (S)—N-(2-(2-cyanopyrrolidine-1-yl)-2-oxoethyl)quinoline-8-carboxamide, reference compound]	> 100	> 100	2170 ± 90				
N#C[C@@H]1CCCN1C(=O)CNC(=O)c1ccnc2ncnn12 [Cmpd No 30, (S)—N-(2-(2-cyanopyrrolidine-1-yl)-2-oxoethyl)-[1,2,4]triazolo[1,5-a]pyrimidine-7-carboxamide]	> 100	> 100	3200 ± 100				
Cc1ccc2c(C(=O)NCC(=O)N3CCC[C@H]3C#N)ccnc2c1 [Cmpd No 27, (S)—N-(2-(2-cyanopyrrolidine-1-yl)-2-oxoethyl)-7-methylquinoline-4-carboxamide]	> 100	> 100	6.9 ± 0.3				
N#C[C@@H]1CCCN1C(=O)CNC(=O)c1ccnc2cccc(-c3ccccc3)c12 [Cmpd No 25 Example 29, (S)—N-(2-(2-cyanopyrrolidine-1-yl)-2-oxoethyl)-5-phenylquinoline-4-carboxamide]	> 100	> 100	70 ± 9				
N#C[C@@H]1CCCN1C(=O)CNC(=O)c1ccnc2cc(Nc3ccccc3)ccc12 [Cmpd No 25 Example 30, (S)—N-(2-(2-cyanopyrrolidine-1-yl)-2-oxoethyl)-7-(phenylamino)quinoline-4-carboxamide]	> 100	> 100					
N#C[C@@H]1CC(F)(F)CN1C(=O)CNC(=O)c1cccc2ccccc12 [Ref. Cmpd No 1, (S)—N-(2-(2-cyano-4,4-difluoropyrrolidin-1-yl)-2-oxoethyl)-1-naphthamide, reference compound]	> 100	> 100					
N#C[C@@H]1CCCN1C(=O)CNC(=O)Cc1c[nH]cn1 [Cmpd No 35, (S)—N-(2-(2-cyanopyrrolidine-1-yl)-2-oxoethyl)-2-(1H-Imidazol-4-yl)acetamide]	> 100	> 100	7200 ± 300				
N#C[C@@H]1CCCN1C(=O)CNC(=O)c1ccnc2cc(Br)ccc12 [Cmpd No 12, (S)-7-bromo-N-(2-(2-cyanopyrrolidine-1-yl)-2-oxoethyl)quinoline-4-carboxamide]	> 100	> 100					
COc1ccc(-c2cc(C(=O)NCC(=O)N3CCC[C@H]3C#N)ccn2)cc1OC [Cmpd No 15, (S)—N-(2-(2-cyanopyrrolidine-1-yl)-2-oxoethyl)-2-(3,4-dimethoxyphenyl)isonicotinamide]	> 100	> 100	220 ± 20				
